Results on six molecules are retold here after paper PMC6661824, “α-Glucosidase inhibitors from a mangrove associated fungus, Zasmidium sp. strain EM5-10” (BMC Chemistry, 2019).

The term IC50 denotes the concentration at which inhibition is half-maximal. The Vmax is the rate approached at saturating substrate.

Where “and” joins values, the source holds several entries; their conditions need not be identical. Equal entries are not always repeated.

In assay [1] the target is α-Glucosidase from baker's yeast. In words: α-Glucosidase inhibitory assay (PNP-G substrate). It counts as biochemical, S. cerevisiae. As for the experimental part:
(§1) The α-glucosidase inhibitory assay was performed according to the protocol established in our laboratory. α-Glucosidase from baker’s yeast purchased from Sigma Chemical Co. The inhibition was measured spectrophotometrically at pH 7.0 and 37 °C employing 2 mM p-nitrophenyl α-D-glucopyranoside (PNP-G) as a substrate and 32 mU/mL of the enzyme, in 100 mM potassium phosphate buffer (enzyme stock). […] The absorbance (A) of 4-nitrophenol released by the hydrolysis of PNP-G was measured at 400 nm by Synergy HT Bio Tek microplate spectrophotometer. […] After incubating, 150 µL of the substrate was added and further incubated for 20 min at 37 °C. All assays are performed in 96-well microplates (Greiner bio-one 655101) in duplicate. The activity of samples was calculated as a percentage in comparison to a control (DMSO or MeOH instead of sample solution) according to the following equation: %Inhibition=ΔAcontrol-ΔAsample/ΔAcontrol×100%
The concentration required to inhibit activity of the enzyme by 50% (IC50) was calculated by regression analysis.

The test system of assay [2] is α-glucosidase. In words: Kinetic analysis of α-glucosidase inhibition (Lineweaver–Burk plots). Type of assay: biochemical, S. cerevisiae. Conditions: for type of inhibition against α-glucosidase: Lineweaver–Burk plots; for Vmax: maximum reaction velocity of α-glucosidase in presence of inhibitor. As for the experimental part:
Kinetic analysis was carried out to understand the interaction of tripalmitin with α-glucosidase. Lineweaver–Burk plots were constructed using different concentrations of substrate and tripalmitin.
as §1

[3] abbreviates: standards purchased from Sigma-Aldrich.

`CCCCCCCCCCCCCCCC(=O)OCC(COC(=O)CCCCCCCCCCCCCCC)OC(=O)CCCCCCCCCCCCCCC` [Compound 1, tripalmitin]: in assay [1] (pH 7.0, 37 °C, 2 mM PNP-G), the IC50 is 3.75 µM and 3.67 µM; the “IC50 α-glucosidase” value is given as 3.02 µg/mL. In addition, in assay [1] (setting [3]), the IC50 was found to be 3.2 µM. Moreover, in assay [2], the “type of inhibition against α-glucosidase” value is given as “mixed inhibitor” and the Vmax was found to be 0.0027 ± 0.0001 mmol/L/min.
With `OCC(O)CO` [glycerol], the “α-glucosidase inhibition (result in words)” value in assay [1] (obtained from methanolysis reaction) was “inactive”.
Take `CCCCCCCCCCCCCCCC(=O)OC` [methyl palmitate]: in assay [1] (pH 7.0, 37 °C, 2 mM PNP-G), the IC50 worked out at 0.46 µM and the “IC50 α-glucosidase” value was 0.13 µg/mL. Further, in assay [2], the “type of inhibition against α-glucosidase” value is “mixed inhibitors” and the maximum rate (Vmax) worked out at 0.0024 ± 0.0002 mmol/L/min.
Consider `CCCCCCCC/C=C\CCCCCCCC(=O)O` [oleic acid], for which the IC50 in assay [1] (pH 7.0, 37 °C, 2 mM PNP-G) is 0.23 µM.
The same measure, in the same setting: the figure for `CCCCCCCCCCCCCCCCCC(=O)O` [stearic acid] is 0.81 µM.
Take `CCCCCCCC/C=C\CCCCCCCC(=O)OCC(COC(=O)CCCCCCC/C=C\CCCCCCCC)OC(=O)CCCCCCC/C=C\CCCCCCCC` [triolein]: the IC50 in assay [1] (setting [3]) was 1.52 µM.
